Earlier results, collected in patent publication US20070172525A1, “Anti-diabetic combinations” (priority 2007, published 2007).

Assays:
[1] = oral
patients with T2DM [2] = system: patients with T2DM
patients with T2DM [3] = system: patients with T2DM; remark: listed apart in the source
patients with T2DM [4] = system: patients with T2DM; remark: listed apart in the source
[5] = sitagliptin 100 mg daily added to metformin
[6] = monotherapy, 100 or 200 mg daily

| SMILES | Time to complete gastrointestinal absorption after ingestion [1] [h] | Patients achieving a HbA1C of <7% (patients with T2DM [2]; sitagliptin 100 mg daily added to at least 1,500 mg per day of metformin, mean HbA1C of 8%) [%] | Fasting glucose (patients with T2DM [2]; [5]) | Mean placebo-subtracted reduction in HbA1C (patients with T2DM [2]; [5]) [%] | Patients achieved a HbA1C of <7% (patients with T2DM [3]; 24 weeks, sitagliptin 100 mg daily plus pioglitazone versus pioglitazone alone) [%] | Mean HbA1C reduction (patients with T2DM [3]; sitagliptin 100 mg daily added to pioglitazone (30 or 45 mg daily), 24 weeks, mean HbA1C 8.1%) [%] | Rates of hypoglycemia or weight gain relative to pioglitazone alone (patients with T2DM [3]; sitagliptin added to pioglitazone) | Weight gain (patients with T2DM [4]; 24-week monotherapy studies) | HbA1C (patients with T2DM [4]; [6]) | Hypoglycemia (patients with T2DM [4]; [6]) |
| --- | --- | --- | --- | --- | --- | --- | --- | --- | --- | --- |
| CN(C)C(=N)N=C(N)N [Conventional Metformin, Metformin] | ≤ 6 |  |  |  |  |  |  |  |  |  |
| N[C@@H](CC(=O)N1CCn2c(nnc2C(F)(F)F)C1)Cc1cc(F)c(F)cc1F [Sitagliptin] |  | 47 | significant reductions | 0.65 | 45.4 | 0.7 | not associated with increased rates | no significant weight gain | significantly reduced | no significant increase |
